According to US20210290648A1, “Potentiation of B-Lactam Antibiotics and B-Lactam/B-Lactamase Inhibitor Combinations Against Multidrug and Extensively Drug-Resistant Pseudomonas Aeruginosa Using Non-Ribosomal Tobramycin-Cyclam Conjugates” (University of Manitoba, priority 2018, published 2021):
Where two headings read alike, the source gives them in different places.

How the values were obtained:
[1] = system: MDR PA101885-challenged larvae; assay: Galleria mellonella infection model, efficacy; format: in vivo; conditions: after 24 h
Experimental: In vivo synergistic effects were determined using Galleria mellonella infection model, as previously described (20). Briefly, worms were purchased from The Worm Lady® Live Feeder (ON, Canada), stored in their natural habitat at 16° C., and used within 10 days of delivery. The worms (average weight of 250 mg) were used for tolerability and efficacy studies. Tolerability study was performed by injecting 10 μL of antimicrobial agents only at concentrations equivalent to 100 mg/kg or 200 mg/kg. The worms (ten in each group) were incubated at 37° C. and monitored for 96 h. For efficacy studies, the virulence and bacterial load required to kill 100% of the worms within 12-18 h (with no treatment) was first determined, which is approximately 5 CFU. Overnight grown culture of respective MDR P. aeruginosa isolate was standardized to 0.5 McFarland standard and diluted in PBS to a final concentration of 5×10^2CFU/mL. 10 μL of this solution (5 CFU) was injected into each worm and incubated for 3 h at 37° C. […] Worms treated with 10 μL PBS or high concentrations of test antibiotics served as negative and positive control, respectively. The worms were incubated at 37° C. in Petri dishes lined with filter paper and scored for survivability every 6 h for up to 48 h. This experiment was repeated to give a total of thirty worms (n=30) in each case. Survival data curves were plotted using Kaplan-Meier survival analysis.

PA 260 = assay: Checkerboard combination study / MIC; format: cell-based, Pseudomonas aeruginosa; conditions: for MICCombination (antibiotic): MIC of antibiotic combined with compound 2; for FICI: antibiotic + compound 2; for MICAntibiotic: antibiotic alone; for FICAntibiotic: with compound 2
PA 91433 = assay: Checkerboard combination study / MIC; format: cell-based, Pseudomonas aeruginosa; conditions: PA 91433; for MICCombination (antibiotic): MIC of antibiotic combined with compound 2; for FICI: antibiotic + compound 2; for MICAntibiotic: antibiotic alone; for FICAntibiotic: with compound 2
MDR PA101885 = assay: Time-kill assay; format: cell-based, Pseudomonas aeruginosa; conditions: for interaction with compound 2 in time-kill: 24 h; for time-kill effect, antibiotic + compound 2: CLSI breakpoint concentration + 4.4 μM or 8.7 μM compound 2, after about 6 h; for time-kill effect, antibiotic alone: at CLSI breakpoint concentration (aztreonam 8 μg/mL, meropenem 2 μg/mL)
Experimental: (§1) Time-kill curves typically reveal the kinetics of bacterial growth and death, with respect to time, at different antimicrobial concentrations. An antibiotic could either be bactericidal or bacteriostatic under specific growth conditions. Bactericidal activity is defined as a ≥3-log reduction in the total CFU/mL from the original inoculum over 24 hours while bacteriostatic activity is defined as maintenance of <3-log reduction in the total CFU/mL from the original inoculum (44). […] Growth curves were initially performed to ensure that strains will reach a stable early- to mid-log phase after 4 h of pre-incubation in antimicrobial-free LB medium.
(§2) Time-kill assay. Time-kill curve analyses were performed by culturing P. aeruginosa in LB medium, in the presence of antibiotics alone and in combination with test adjuvants. MICs of antibiotics and adjuvants were determined before the experiment following CLSI microbroth dilution guidelines. Growth curves were initially performed to confirm that all strains will reach a stable early- to mid-log phase after 4 h of pre-incubation in antimicrobial-free LB medium. A 0.5 McFarland inoculum of each strain was prepared in sterile 0.85% saline solution from an overnight grown culture. For each strain, 30 μl of the prepared inoculum was diluted to 3 ml of LB broth (containing different combinations of antimicrobial agents and adjuvants) and incubated at 37° C. shaking at 250 rpm. At specific time intervals (0, 1, 3, 6, 9, and 24 h), 100 μl was taken from each sample, serially diluted in sterile PBS, plated on LB agar plates, and incubated at 37° C. in a humid 5% CO2-enriched atmosphere. Bacteria colonies were counted after 20 h of incubation.

[2] = system: wild type P. aeruginosa PAO1; assay: Time-kill assay; format: cell-based, Pseudomonas aeruginosa; conditions: WT PAO1; for interaction with compound 2 in time-kill: 24 h; for time-kill effect, antibiotic alone: at MIC (aztreonam 4 μg/mL, meropenem 1 μg/mL)
Experimental: as §1, §2

WT P. aeruginosa PAO1 = assay: Checkerboard combination study / MIC; format: cell-based, Pseudomonas aeruginosa; conditions: for MIC: Pseudomonas aeruginosa; for FICI in the presence of ≤10 μM of 1: antibiotic + compound 1; for FICI in the presence of ≤10 μM of 1 / MIC of Antibiotics in the presence of ≤10 μM of 1 / FICI in the presence of ≤10 μM of 2 / MIC of Antibiotics in the presence of ≤10 μM of 2 / FICI in the presence of ≤10 μM of 3 / MIC of Antibiotics in the presence of ≤10 μM of 3: WT PAO1; for MIC of Antibiotics in the presence of ≤10 μM of 1: antibiotic + compound 1 ≤10 μM; for FICI in the presence of ≤10 μM of 2: antibiotic + compound 2; for MIC of Antibiotics in the presence of ≤10 μM of 2: antibiotic + compound 2 ≤10 μM; for FICI in the presence of ≤10 μM of 3: antibiotic + compound 3; for MIC of Antibiotics in the presence of ≤10 μM of 3: antibiotic + compound 3 ≤10 μM; for MIC of antibiotic alone in PAO1: PAO1 wild-type (Table 4)
MDR PA108590 = assay: Time-kill assay, triple combination; format: cell-based, Pseudomonas aeruginosa; conditions: 16 μg/mL, i.e. half MIC; MDR PA108590
PA108590 = assay: MIC / triple combination susceptibility; format: cell-based, Pseudomonas aeruginosa; conditions: Pseudomonas aeruginosa; P. aeruginosa 108590; FIG. 8 legend
Excerpt: The diazabicyclooctane β-lactamase inhibitor, avibactam, is able to inhibit a wide range of serine β-lactamases (class A, C, and D) but not metallo-β-lactamases (class B) (50, 51).^50,51 However, the high concentration of avibactam required to neutralize the effects of β-lactamase enzymes in these phenotypes is indicative of concomitant permeability barriers in the isolates, such as reduced porin uptake. […] The results of this study are shown in (FIG. 6). All isolates were resistant to all three β-lactam antibiotics used for the study. […] As expected, the study with meropenem was slightly different from others.
Antimicrobial Susceptibility Assay. The in vitro antimicrobial activity of all compounds/antibiotics against a panel of bacteria was evaluated by microbroth dilution method in accordance with the Clinical and Laboratory Standards Institute (CLSI) guidelines. […]
Checkerboard Assay. […] After incubation, the plates were read on EMax® Plus microplate reader (Molecular Devices, Sunnyvale, Calif., USA) at 590 nm. MIC was recorded as wells with the lowest concentration of drugs with no bacterial growth. The fractional inhibitory concentration (FIC) for each antibiotic was calculated by dividing the MIC of the antibiotic in the presence of adjuvant by the MIC of the antibiotic alone. […]

[3] = system: MDR PA108590-challenged larvae; assay: Galleria mellonella infection model, efficacy; format: in vivo; conditions: ceftazidime 1.56 mg/kg single dose
Excerpt: In vivo larvae-infection model.

[4] = PAO1, 18 h, antibiotic alone, WT PAO1 (Table 2), read-out: MIC alone
[5] = PAO1, time-kill study text and FIG. 7 legend, read-out: MIC against WT PAO1

SMILES	MICCombination (antibiotic) (PA 260) [µg/mL]	FICI (PA 260)	MICAntibiotic (PA 260) [µg/mL]	FICAntibiotic (PA 260)	MICCombination (antibiotic) (PA 91433) [µg/mL]	FICI (PA 91433)	MICAntibiotic (PA 91433) [µg/mL]	FICAntibiotic (PA 91433)	interaction with compound 2 in time-kill (MDR PA101885)	time-kill effect, antibiotic + compound 2 (MDR PA101885)	time-kill effect, antibiotic alone (MDR PA101885)	interaction with compound 2 in time-kill [2]	MIC of antibiotic + Compound 2 in PAO1 (WT P. aeruginosa PAO1; + compound 2 ≤8.7 μM, PAO1) [µg/mL]	FICI in the presence of ≤10 μM of 1 (WT P. aeruginosa PAO1)	MIC of Antibiotics in the presence of ≤10 μM of 1 (WT P. aeruginosa PAO1)	FICI in the presence of ≤10 μM of 2 (WT P. aeruginosa PAO1)	MIC of Antibiotics in the presence of ≤10 μM of 2 (WT P. aeruginosa PAO1) [µg/mL]	FICI in the presence of ≤10 μM of 3 (WT P. aeruginosa PAO1)	MIC of Antibiotics in the presence of ≤10 μM of 3 (WT P. aeruginosa PAO1) [µg/mL]	MIC of antibiotic alone in PAO1 (WT P. aeruginosa PAO1; antibiotic alone) [µg/mL]	other results
C[C@@H](O)[C@H]1C(=O)N2C(C(=O)O)=C(S[C@@H]3CN[C@H](C(=O)N(C)C)C3)[C@H](C)[C@H]12 [Meropenem]	1	<0.16	8	0.125	0.25	<0.03	16	0.016	synergistic	strongly bactericidal	bacteriostatic effect	indifferent	0.25	0.25 (0.25)	0.25 (0.25) μg/ml	0.26	0.25	0.50	0.5	1	mortality of larvae, monotherapy ([1]; aztreonam […], meropenem 37.5 mg/kg, compound 2 100 mg/kg): 100%; survival of larvae ([1]; meropenem 37.5 mg/kg single dose): 0%; survival of larvae ([1]; meropenem 50 mg/kg single dose): 80%; time-kill effect, antibiotic alone [2]: time-dependent bactericidal effect; fold change of MIC + Compound 2 in PAO1 (WT P. aeruginosa PAO1; + compound 2 ≤8.7 μM, PAO1): 4; MIC (WT P. aeruginosa PAO1; [4]): 1 µg/mL; MIC (WT P. aeruginosa PAO1; [5]): 1 µg/mL
C[C@H]1[C@H](NC(=O)/C(=N\OC(C)(C)C(=O)O)c2csc(N)n2)C(=O)N1S(=O)(=O)O [Aztreonam]	8	<0.19	64	–	512	<1.06	512	1.000	synergistic	strongly bactericidal	bacteriostatic effect	synergistic	0.25	0.13	0.5 µg/mL	0.07	0.25	0.14	0.5	4	survival of larvae ([1]; aztreonam 25 mg/kg single dose): 50%; time-kill effect, antibiotic alone [2]: time-dependent bactericidal effect; MIC (WT P. aeruginosa PAO1; [4]): 4 µg/mL; MIC (WT P. aeruginosa PAO1; PAO1, FIG. 7 legend, read-out: MIC against WT PAO1): 0.004 µg/mL; MIC (WT P. aeruginosa PAO1; [5]): 4 µg/mL
CC(C)(O/N=C(\C(=O)N[C@@H]1C(=O)N2C(C(=O)[O-])=C(C[n+]3ccccc3)CS[C@H]12)c1csc(N)n1)C(=O)O [Ceftazidime]	16	<0.52	32	0.500	512	<0.50	1024	0.500	–	–	–	–	0.5	0.25	0.5 µg/mL	0.13	0.25	0.25	0.5	4	time-kill effect, alone (MDR PA108590): bactericidal effects after 3 h; MIC (PA108590): 0.032 µg/mL; survival of larvae ([3]; after 24 h): 50%; survival of larvae ([3]; after 36 h): 10%; MIC (WT P. aeruginosa PAO1; PAO1, antibiotic alone, WT PAO1 (Table 2), read-out: MIC alone): 2 µg/mL
